Key:
Estrogen receptor = biological target: T1, Estrogen receptor (Homo sapiens, UniProt P03372)
T1 sequence (P03372 whole entry): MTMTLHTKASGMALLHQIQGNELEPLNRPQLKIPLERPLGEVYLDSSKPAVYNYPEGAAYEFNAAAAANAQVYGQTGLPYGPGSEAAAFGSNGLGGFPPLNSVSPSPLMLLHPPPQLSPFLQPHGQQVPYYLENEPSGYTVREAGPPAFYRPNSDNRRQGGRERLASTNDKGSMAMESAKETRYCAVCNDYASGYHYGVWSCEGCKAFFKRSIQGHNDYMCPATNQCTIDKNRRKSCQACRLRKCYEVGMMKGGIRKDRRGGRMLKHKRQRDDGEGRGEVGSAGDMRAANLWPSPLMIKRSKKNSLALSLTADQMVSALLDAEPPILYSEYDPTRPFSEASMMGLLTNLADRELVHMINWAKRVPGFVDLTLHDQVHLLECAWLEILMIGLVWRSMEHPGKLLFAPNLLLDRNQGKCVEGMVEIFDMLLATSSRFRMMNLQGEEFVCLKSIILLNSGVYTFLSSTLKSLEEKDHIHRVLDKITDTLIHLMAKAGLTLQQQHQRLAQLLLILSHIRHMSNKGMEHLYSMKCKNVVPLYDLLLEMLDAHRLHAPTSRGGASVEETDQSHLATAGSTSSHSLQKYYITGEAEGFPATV
Description: Antagonist activity at ERalpha (unknown origin) assessed as inhibition of fluorescein-labeled PGC-1 coactivator recruitment incubated for 30 mins measured by TR-FRET assay

[1] = Antiproliferative activity on human MCF7/TAMR-1 cells at 10 uM assessed as ratio of T/C measured up to 144 hrs relative to control; assay type: functional, MCF-7/TAMR-1
MCF7 = experiment: Antiproliferative activity on human MCF7 cells at 5 to 20 uM assessed as ratio of T/C measured up to 144 hrs relative to control; assay type: functional; conditions: dose 5-20 µM

Row | SMILES | T/C [1] [%] | other results
1 | CCC(=C(c1ccc(O)cc1)c1ccc(/C=C/C(=O)NCCCCCNC(=O)CCc2nc3cc(O)ccc3[nH]2)cc1)c1ccccc1 (mixture of isomers) | – | IC50 (Estrogen receptor): 125 nM
2 | CCC(=C(c1ccc(O)cc1)c1ccc(/C=C/C(=O)NCCCCCCNC(=O)CCc2nc3cc(OC)ccc3[nH]2)cc1)c1ccccc1 (mixture of isomers) | 40 | –
3 | CCC(=C(c1ccc(O)cc1)c1ccc(/C=C/C(=O)NCCCNC(=O)CCCn2c(=S)[nH]c3ccccc3c2=O)cc1)c1ccccc1 (mixture of isomers) | 40 | –
4 | CCC(=C(c1ccc(O)cc1)c1ccc(/C=C/C(=O)NCCCCCCNC(=O)CCc2nc3cc(O)ccc3[nH]2)cc1)c1ccccc1 (mixture of isomers) | 40 | –
5 | CCC(=C(c1ccc(O)cc1)c1ccc(/C=C/C(=O)NCCCNC(=O)c2ccc(N3CCN(C(=O)CCCn4c(=S)[nH]c5ccccc5c4=O)CC3)cc2)cc1)c1ccccc1 (mixture of isomers) | 40 | –
6 | C[C@]12CC[C@@H]3c4ccc(O)cc4C[C@@H](CCCCCCCCC[S+]([O-])CCCC(F)(F)C(F)(F)F)[C@H]3[C@@H]1CC[C@@H]2O (stereo partly specified) [FULVESTRANT] | – | T/C (MCF7): 30%

Reference: ChEMBL document CHEMBL5053487 (J Med Chem, 2021)
